Measurements: patent US20260374766A1, “METHODS FOR TREATING CANCER” (Antares Therapeutics, Inc., priority 2022, published 2026)
Read-outs that look alike come from different tables or passages of the source.

Assays:
[1] = molecular target: T1, p53 Y220C mutant protein (amino acid residues 94-293) (Homo sapiens, UniProt P04637, Y220C); experiment: Surface Plasmon Resonance (SPR) assay, Kd_kinetic; format: binding; conditions: read-out: SPR P53 Y220C KD kinetic
T1 construct: p53 Y220C mutant protein (amino acid residues 94-293)
Summary of the method: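 Biacore 8K SPR; 16 or 20 °C; Tris 50 mM pH 7.5, NaCl 100 mM, DTT 1 mM, Brij35 0.01%, Tween-20 0.05%, DMSO 1%. Kd_kinetic by 1:1 fit.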

[2] = molecular target: T1, p53 Y220C mutant protein (amino acid residues 94-293); experiment: Thermal Shift Assay (TSA), dTM; format: binding; conditions: thermal shift; for ΔTm at 100 µM: 100 uM compound, read-out: TSA P53 Y220C dTM (100 uM); for ΔTm at 10 µM: 10 uM compound, read-out: TSA P53 Y220C dTM (10 uM)
Summary of the method: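 5 μM p53 Y220C (residues 94-293) incubated 3 h at 20 °C with 10 μM or 100 μM compound in 20 mM HEPES pH 7.4, 100 mM NaCl, 0.01% Pluronic F-127, 1% DMSO plus Sypro Orange. Melt from 30 to 50 °C at 0.03 °C/s; TM from Boltzmann two-state fit.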

p53 Y220C = p53 Y220C (Homo sapiens, UniProt P04637, Y220C); experiment: Luciferase Reporter Assay (Luc), p53 response element, NClH1299 cells with inducible p53 Y220C; format: cell-based; conditions: luciferase reporter, NClH1299 inducible p53 Y220C, 6 hour; for Emax: 10 uM tool compound as positive control; for AC50: read-out: Luc P53 Y220C AC50
Summary of the method: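 H1299 cells induced with 0.5 ug/mL doxycycline for 24 hours, then exposed to compound for 6 hours. p53 response-element luciferase read by One-Glo luminescence after 5 min shaking at room temperature.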

NUGC3 p53 Y220C = experiment: Cell Proliferation Assay (CellTiter-Glo, CTG), NUGC3 p53 Y220C; format: cell-based; conditions: Homo sapiens, NUGC-3, 120 h, CellTiter-Glo, NUGC3 p53 Y220C, 5 days
Summary of the method: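 Tet-One inducible p53 Y220C or R273H constructs were stably introduced into NCI-H1299 by lentiviral transduction; NUGC3 was used as is. Cells (250-500 per well) were exposed to compound for 5 days, then CellTiter-Glo was added for 10 min at room temperature and IC50 was calculated from luminescence.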

H1299 p53 Y220C = experiment: Cell Proliferation Assay (CellTiter-Glo, CTG), H1299 p53 Y220C (NClH1299-inducible p53 Y220C); format: cell-based; conditions: Homo sapiens, NCI-H1299, 120 h, CellTiter-Glo, H1299 p53 Y220C, 5 days
Summary of the method: (§1)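 NClH1299 lines stably transduced with Tet-inducible p53 Y220C or R273H, plus NUGC3, were treated with compound for 5 days at 250-500 cells/well. IC50 derived from CellTiter-Glo luminescent signal after 10 min room-temperature incubation.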

H1299 p53 R273H = experiment: Cell Proliferation Assay (CellTiter-Glo, CTG), H1299 p53 R273H (NClH1299-inducible p53 R273H); format: cell-based; conditions: Homo sapiens, NCI-H1299, 120 h, CellTiter-Glo, H1299 p53 R273H, 5 days
Summary of the method: as §1

SMILES | Kd ([1]; SPR, kinetic KD, p53 Y220C) [nM] | ΔTm at 100 µM [2] [°C] | Emax (p53 Y220C) [%] | AC50 (p53 Y220C) [nM] | IC50 (NUGC3 p53 Y220C) [nM] | IC50 (H1299 p53 Y220C) [nM] | IC50 (H1299 p53 R273H) [nM] | Kd [1] [nM] | ΔTm at 10 µM [2] [°C]
COC(=O)N1CCC(Nc2cccn3c(CC(F)(F)F)c(C#CCNc4ccc(S(C)(=O)=O)cc4OC)nc23)CC1 [Example 116, methyl 4-[(2-{3-[(4-methanesulfonyl-2-methoxyphenyl)amino]prop-1-yn-1-yl}-3-(2,2,2-trifluoroethyl)imidazo[1,2-a]pyridin-8-yl)amino]piperidine-1-carboxylate] | 100 to 1000 | 5 to 10 | < 70 | > 3000 | > 3000 | > 3000 | ≥ 10000 |  | 
CNC(=O)N1CCC(Nc2cccn3c(CC(F)(F)F)c(C#CCNc4ccc(S(C)(=O)=O)cc4OC)nc23)CC1 [Example 117, 4-[(2-{3-[(4-methanesulfonyl-2-methoxyphenyl)amino]prop-1-yn-1-yl}-3-(2,2,2-trifluoroethyl)imidazo[1,2-a]pyridin-8-yl)amino]-N-methylpiperidine-1-carboxamide] | 10 to 100 | 5 to 10 | 70 to 80 | > 3000 | > 3000 | > 3000 | ≥ 10000 |  | 
CNC(=O)c1ccc(NCC#Cc2nn3c(N[C@@H]4CCN(C)C[C@@H]4F)cccc3c2CC(F)(F)F)c(OC)c1 [Example 118] | 10 to 100 | 5 to 10 | 70 to 80 | 1500 to 3000 | 1500 to 3000 | 1500 to 3000 | ≥ 10000 |  | 
COc1cc(C(=O)N2CCOCC2)ccc1NCC#Cc1nc2c(N[C@@H]3CCN(C)C[C@@H]3F)cccn2c1SC(F)(F)F [Example 119] |  | ≥ 10 | 80 to 90 | < 750 | < 750 | < 750 | ≥ 10000 | < 10 | ≥ 10
CNC(=O)c1cc(OC)c(NCC#Cc2nc3c(N[C@@H]4CCN(C)C[C@@H]4F)cccn3c2SC(F)(F)F)cc1Cl [Example 121] | < 10 | ≥ 10 | > 90 | < 750 | < 750 | < 750 | 8000 to 10000 |  | ≥ 10
CNC(=O)c1ccc(NCC#Cc2nc3c(N[C@@H]4C[C@H]5CC[C@@H]([C@@H]4F)N5C)cccn3c2SC(F)(F)F)c(OC)c1 [Example 122] | < 10 | ≥ 10 | 80 to 90 | < 750 | < 750 | < 750 | 5000 to 8000 |  | ≥ 10
CNC(=O)c1ccc(O)c(NCC#Cc2cc3c(N[C@@H]4CCN(C)C[C@@H]4F)nccn3c2SC(F)(F)F)c1 [Example 123] | < 10 |  | > 90 | < 750 | < 750 | < 750 | ≥ 10000 |  | ≥ 10
CNC(=O)c1ccc(OC)c(NCC#Cc2cc3c(N[C@@H]4CCN(C)C[C@@H]4F)cccn3c2SC(F)(F)F)c1 [Example 124, 3-{[3-(8-{[(3S,4R)-3-fluoro-1-methylpiperidin-4-yl]amino}-3-[(trifluoromethyl)sulfanyl]indolizin-2-yl)prop-2-yn-1-yl]amino}-4-methoxy-N-methylbenzamide] | < 10 |  | > 90 | < 750 | < 750 | < 750 | 5000 to 8000 |  | ≥ 10
CNC(=O)c1ccc(OC)c(NCC#Cc2cc3c(N[C@@H]4CCNC[C@@H]4F)cccn3c2SC(F)(F)F)c1 [Example 125, 3-{[3-(8-{[(3S,4R)-3-fluoropiperidin-4-yl]amino}-3-[(trifluoromethyl)sulfanyl]indolizin-2-yl)prop-2-yn-1-yl]amino}-4-methoxy-N-methylbenzamide] | < 10 |  | > 90 | < 750 | < 750 | < 750 | 5000 to 8000 |  | ≥ 10
CNC(=O)c1ccc(NCC#Cc2cc3c(N[C@@H]4CCN(C)C[C@@H]4F)cccn3c2SC(F)(F)F)c(OC)c1 [Example 126, 4-{[3-(8-{[(3S,4R)-3-fluoro-1-methylpiperidin-4-yl]amino}-3-[(trifluoromethyl)sulfanyl]indolizin-2-yl)prop-2-yn-1-yl]amino}-3-methoxy-N-methylbenzamide] | < 10 |  | > 90 | < 750 | < 750 | < 750 | 8000 to 10000 |  | ≥ 10
CCOc1cc(C(=O)NC)ccc1NCC#Cc1nc2c(N[C@@H]3CCN(C)C[C@@H]3F)cccn2c1SC(F)(F)F [Example 127] | < 10 | ≥ 10 | 80 to 90 | < 750 | < 750 | < 750 | 8000 to 10000 |  | ≥ 10
COc1cc2n[nH]cc2cc1NCC#Cc1nc2c(N[C@@H]3CCN(C)C[C@@H]3F)cccn2c1SC(F)(F)F [Example 128] | < 10 | ≥ 10 | 80 to 90 | < 750 | 750 to 1500 | 750 to 1500 | < 5000 |  | ≥ 10
CNC(=O)c1ccc(NCC#Cc2nc3c(NC4CCN(C)CC4)cccn3c2SC(F)(F)F)c(OC)c1 [Example 129] | < 10 | ≥ 10 | 80 to 90 | < 750 | < 750 | < 750 | 5000 to 8000 |  | ≥ 10
CNC(=O)c1ccc(NCC#Cc2nc3c(N[C@H]4C[C@@H]5CC[C@H]([C@H]4F)N5C)cccn3c2SC(F)(F)F)c(OC)c1 [Example 130] | < 10 | ≥ 10 | 70 to 80 | < 750 | < 750 | < 750 | 5000 to 8000 |  | ≥ 10
